Measurements as given in patent US9643999B2 (Bristol-Myers Squibb Company, priority 2012, dated 2017).
Read-outs that look alike come from different tables or passages of the source.

Assays:
HCV genotype 1b replicon = assay: HCV replicon luciferase reporter assay, genotype 1b (LE_1b); type: cell-based; details: Hepatitis C virus, 72 h, HUH-7 cells, genotype 1b (Con1) replicon, 3 days incubation, Renilla luciferase
Source text: An HCV replicon whole cell system was established as described by Lohmann V, Korner F, Koch J, Herian U, Theilmann L, Bartenschlager R., Science 285(5424):110-3 (1999) and modified to introduce a luciferase reporter, as first described by Krieger et al (Krieger N, Lohmann V, and Bartenschlager R, J. Virol. 75(10):4614-4624 (2001)). cDNA encoding a humanized form of the Renilla luciferase gene and a linker sequence fused directly to the 3′-end of the luciferase gene were introduced into the replicon construct using an Asc1 restriction site located in core, directly upstream of the neomycin marker gene. The adaptive mutation at position 1179 (serine to isoleucine) was also introduced (Blight K J, Kolykhalov, A A, Rice, C M, Science 290(5498):1972-1974). A stable cell line constitutively expressing this HCV replicon construct was generated by first linearizing plasmid DNAs with ScaI. RNA transcripts were synthesized in vitro using the T7 MegaScript transcription kit (Ambion, Austin, Tex.) according to manufacturer's directions. In vitro transcripts of the cDNA were transfected into the human hepatoma cell line, HUH-7. […] Resulting cell lines were characterized for positive and negative strand RNA production and protein production over time. […]
(§1) HCV replicon luciferase assays were developed to monitor the inhibitory effects of compounds described in the disclosure on HCV genotypes 1a and 1b viral replication. HUH-7 cells, constitutively expressing the HCV replicon, were grown in Dulbecco's Modified Eagle Media (DMEM) (Gibco-BRL) containing 10% Fetal calf serum (FCS) (Sigma) and 1 mg/mL G418 (Gibco-BRL). Compounds were serially diluted 3 folds in DMSO for a twenty-point titration and subsequently transferred to sterile 384-well tissue-culture treated plates (Corning cat #3571). The plates were then seeded with 50 μL of cells at a density of 3.0×10^3 cells/well in DMEM containing 4% FCS (final DMSO concentration at 0.5%). After 3 days incubation at 37° C., cells were analyzed for Renilla Luciferase activity using the EnduRen as substrate (Promega cat #E6485). The EnduRen substrate was diluted in DMEM and then added to the plates to a final concentration of 7.5 μM. The plates were incubated for 2 hrs at 37° C. and then read immediately for 30 seconds with Viewlux Imager (PerkinElmer) using a luminescence program. To assess cytotoxicity of compounds, CC50 values were generated by multiplexing the EnduRen-containing plates with Cell Titer-Blue (Promega, cat #G8082). Cell-Titer Blue (3 μL) was added to each well and incubated for 8 hrs at 37° C. The fluorescence signal from each well was read, with an excitation wavelength at 525/10 nm and an emission wavelength of 598/10 nm, using the Viewlux Imager.
(§2) The EC50 values for compounds were calculated by using a four-parameter logistic equation: y=A+((B−A)/(1+((C/x)^D))), where A and B denotes minimal and maximal % inhibition, respectively, C is the EC50, D is the hill slope and x represents compound concentration.

HCV genotype 1a replicon = assay: HCV replicon luciferase reporter assay, genotype 1a (LE_1a); type: cell-based; details: Hepatitis C virus, 72 h, HUH-7 cells, genotype 1a H77 replicon, 3 days incubation, Renilla luciferase
Source text: An HCV replicon whole cell system was established as described by Lohmann V, Korner F, Koch J, Herian U, Theilmann L, Bartenschlager R., Science 285(5424):110-3 (1999) and modified to introduce a luciferase reporter, as first described by Krieger et al (Krieger N, Lohmann V, and Bartenschlager R, J. Virol. 75(10):4614-4624 (2001)). cDNA encoding a humanized form of the Renilla luciferase gene and a linker sequence fused directly to the 3′-end of the luciferase gene were introduced into the replicon construct using an Asc1 restriction site located in core, directly upstream of the neomycin marker gene. The adaptive mutation at position 1179 (serine to isoleucine) was also introduced (Blight K J, Kolykhalov, A A, Rice, C M, Science 290(5498):1972-1974). A stable cell line constitutively expressing this HCV replicon construct was generated by first linearizing plasmid DNAs with ScaI. RNA transcripts were synthesized in vitro using the T7 MegaScript transcription kit (Ambion, Austin, Tex.) according to manufacturer's directions. In vitro transcripts of the cDNA were transfected into the human hepatoma cell line, HUH-7. […] Resulting cell lines were characterized for positive and negative strand RNA production and protein production over time.
A stable HCV replicon luciferase reporter cell line representing the genotype 1a H77 strain (Yanagi M, Purcell R H, Emerson S U, et al. Transcripts from a single full-length cDNA clone of hepatitis C virus are infectious when directly transfected into the liver of a chimpanzee. Proc Natl Acad Sci USA 1997; 94(16):8738-8743) was generated as described previously for the genotype 1b(Con1) replicon luciferase cell line. The replicon construct was modified by introducing mutations were introduced into the genes encoding the NS3 helicase domain (proline replaced by leucine at position 1496) and NS5A (serine to isoleucine at position 2204) to improve replication in cell culture.
as §1, §2

Structure (SMILES)	EC50 (HCV genotype 1b replicon; read-out: LE_1b (EC50))	EC50 (HCV genotype 1b replicon; read-out: LE_1b (EC50, range))	EC50 (HCV genotype 1a replicon; read-out: LE_1a (EC50))	EC50 (HCV genotype 1a replicon; read-out: LE_1a (EC50, range))
CC[C@@H]1C[C@H](C)CC/C=C\[C@@H]2C[C@@]2(C(=O)NS(=O)(=O)C2(C)CC2)NC(=O)[C@@H]2C[C@@H](Oc3nc4cc(-c5ncc(C)o5)ccc4nc3C(F)(F)F)CN2C(=O)[C@H]1NC(=O)OC(C)(C)C(F)(F)F [Compound 7003]	0.8 nM	0.51 to 1 nM	3.7 nM	1.01 to 5 nM
C[C@@H]1CC/C=C\[C@@H]2C[C@@]2(C(=O)NS(=O)(=O)C2(C)CC2)NC(=O)[C@@H]2C[C@@H](Oc3nccc4c5c(ccc34)CCO5)CN2C(=O)[C@@H](NC(=O)OC(C)(C)C(F)(F)F)[C@H](C)C1 [Compound 5497]		1.01 to 5 nM		5.01 to 35 nM
CC[C@@H]1C[C@H](C)CC/C=C\[C@@H]2C[C@@]2(C(=O)NS(=O)(=O)C2CC2)NC(=O)[C@@H]2C[C@@H](Oc3ncc(C(=O)OC)c4cc(OC)ccc34)CN2C(=O)[C@H]1NC(=O)OC(C)(C)C(F)(F)F [Compound 4286, methyl 1-(((2R,6S,7R,9R,13aS,14aR,16aS,Z)-14a-((cyclopropylsulfonyl)carbamoyl)-7-ethyl-9-methyl-5,16-dioxo-6-((((1,1,1-trifluoro-2-methylpropan-2-yl)oxy)carbonyl)amino)-1,2,3,5,6,7,8,9,10,11,13a,14,14a,15,16,16a-hexadecahydrocyclopropa[e]pyrrolo[1,2-a][1,4]diazacyclopentadecin-2-yl)oxy)-6-methoxyisoquinoline-4-carboxylate]		0.51 to 1 nM		1.01 to 5 nM
CC[C@@H]1C[C@H](C)CC/C=C\[C@@H]2C[C@@]2(C(=O)NS(=O)(=O)C2(C)CC2)NC(=O)[C@@H]2C[C@@H](Oc3ncc(-c4nc(C(C)(C)C)cs4)c4cc(OC)ccc34)CN2C(=O)[C@H]1NC(=O)OC(C)(C)C(F)(F)F [Compound 4275]		5.01 to 35 nM		5.01 to 35 nM
CC[C@@H]1C[C@H](C)CC/C=C\[C@@H]2C[C@@]2(C(=O)NS(=O)(=O)C2CC2)NC(=O)[C@@H]2C[C@@H](Oc3nc4cc(OC)ccc4nc3C3CC3)CN2C(=O)[C@H]1NC(=O)OC(C)(C)C(F)(F)F [Compound 4309]	2.31 nM	1.01 to 5 nM	3.51 nM	1.01 to 5 nM
[2H]C([2H])([2H])C1(S(=O)(=O)NC(=O)[C@@]23C[C@H]2/C=C\CC[C@@H](C)C[C@@H](CC)[C@H](NC(=O)OC(C)(C)C(C)(F)F)C(=O)N2C[C@H](Oc4nccc5cc(OC)c(F)cc45)C[C@H]2C(=O)N3)CC1 [Compound 5513]		0.51 to 1 nM		1.01 to 5 nM
CC[C@@H]1C[C@H](C)CC/C=C\[C@@H]2C[C@@]2(C(=O)NS(=O)(=O)C2CC2)NC(=O)[C@@H]2C[C@@H](Oc3ncc(-c4cnco4)c4cc(OC)ccc34)CN2C(=O)[C@H]1NC(=O)OC(C)(C)C(F)(F)F [Compound 4293]		0.51 to 1 nM		1.01 to 5 nM
Cc1cn2c(n1)nc(O[C@@H]1C[C@H]3C(=O)N[C@]4(C(=O)NS(=O)(=O)C5(CF)CC5)C[C@H]4/C=C\CC[C@@H](C)C[C@@H](C)[C@H](NC(=O)OC(C)(C)C(F)(F)F)C(=O)N3C1)c1cc(Cl)ccc12 [Compound 6139]		1.01 to 5 nM		5.01 to 35 nM
C[C@@H]1CC/C=C\[C@@H]2C[C@@]2(C(=O)NS(=O)(=O)C2(C)CC2)NC(=O)[C@@H]2C[C@@H](Oc3nccc4c5c(ccc34)CCO5)CN2C(=O)[C@@H](NC(=O)OC(C)(C)C(C)(F)F)[C@H](C)C1 [Compound 5495]		0.51 to 1 nM		1.01 to 5 nM
C[C@@H]1CC/C=C\[C@@H]2C[C@@]2(C(=O)NS(=O)(=O)C2(CF)CC2)NC(=O)[C@@H]2C[C@@H](Oc3nc4nccn4c4ccc(Cl)cc34)CN2C(=O)[C@@H](NC(=O)OC(C)(C)C(F)(F)F)[C@H](C)C1 [Compound 6131]		1.01 to 5 nM		5.01 to 35 nM
Cc1cn2c(n1)nc(O[C@@H]1C[C@H]3C(=O)N[C@]4(C(=O)NS(=O)(=O)C5(CF)CC5)C[C@H]4/C=C\CC[C@@H](C)C[C@@H](C)[C@H](NC(=O)OC(C)(C)C(C)(F)F)C(=O)N3C1)c1cc(Cl)ccc12 [Compound 6141]		1.01 to 5 nM		5.01 to 35 nM
CC[C@@H]1C[C@H](C)CC/C=C\[C@@H]2C[C@@]2(C(=O)NS(=O)(=O)C2(C)CC2)NC(=O)[C@@H]2C[C@@H](Oc3ncc(-c4cnco4)c4cc(OC)ccc34)CN2C(=O)[C@H]1NC(=O)OC(C)(C)C(F)(F)F [Compound 4291]		0.51 to 1 nM		1.01 to 5 nM
CC[C@@H]1C[C@H](C)CC/C=C\[C@@H]2C[C@@]2(C(=O)NS(=O)(=O)C2(C)CC2)NC(=O)[C@@H]2C[C@@H](Oc3nccc4c5c(ccc34)CCO5)CN2C(=O)[C@H]1NC(=O)OC(C)(C)C [Compound 5493, tert-butyl((2R,6S,7R,9R,13aS,14aR,16aS,Z)-2-((2,3-dihydrofuro[2,3-f]isoquinolin-6-yl)oxy)-7-ethyl-9-methyl-14a-(((1-methylcyclopropyl)sulfonyl)carbamoyl)-5,16-dioxo-1,2,3,5,6,7,8,9,10,11,13a,14,14a,15,16,16a-hexadecahydrocyclopropa[e]pyrrolo[1,2-a][1,4]diazacyclopentadecin-6-yl)carbamate]		5.01 to 35 nM		35 to 145 nM
[2H]C([2H])([2H])C1(S(=O)(=O)NC(=O)[C@@]23C[C@H]2/C=C\CC[C@@H](C)C[C@@H](CC)[C@H](NC(=O)OC(C)(C)C)C(=O)N2C[C@H](Oc4nccc5cc(OCC)c(F)cc45)C[C@H]2C(=O)N3)CC1 [Compound 5509]		0.51 to 1 nM		1.01 to 5 nM
CC[C@@H]1C[C@H](C)CC/C=C\[C@@H]2C[C@@]2(C(=O)NS(=O)(=O)C2(C)CC2)NC(=O)[C@@H]2C[C@@H](Oc3nc4nccn4c4ccc(Cl)cc34)CN2C(=O)[C@H]1NC(=O)OC(C)(C)C(F)(F)F [Compound 6133]		0.51 to 1 nM		5.01 to 35 nM
C[C@@H]1CC/C=C\[C@@H]2C[C@@]2(C(=O)NS(=O)(=O)C2(C)CC2)NC(=O)[C@@H]2C[C@@H](Oc3nc4nncn4c4ccccc34)CN2C(=O)[C@@H](NC(=O)OC(C)(C)C(F)(F)F)[C@H](C)C1 [Compound 6125]		35 to 145 nM		35 to 145 nM
C[C@@H]1CC/C=C\[C@@H]2C[C@@]2(C(=O)NS(=O)(=O)C2(C)CC2)NC(=O)[C@@H]2C[C@@H](Oc3nc4nccn4c4ccc(Cl)cc34)CN2C(=O)[C@@H](NC(=O)OC(C)(C)C(F)(F)F)[C@H](C)C1 [Compound 6129]	0.78 nM	0.51 to 1 nM	4.21 nM	1.01 to 5 nM
[2H]C([2H])([2H])C1(S(=O)(=O)NC(=O)[C@@]23C[C@H]2/C=C\CC[C@@H](C)C[C@@H](CC)[C@H](NC(=O)OC(C)(C)C(C)(F)F)C(=O)N2C[C@H](Oc4nccc5cc(OCC)c(F)cc45)C[C@H]2C(=O)N3)CC1 [Compound 5519]		0.51 to 1 nM		1.01 to 5 nM
